Laboratory results from ChEMBL document CHEMBL1201862, “PubChem BioAssay data set” (2004).
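Tested at 5 concentrations; 48 h exposure; 96-well plates; endpoints linearly interpolated, else capped at highest concentration. GI50: concentration for 50% inhibition of growth.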 Calls of active or inactive are those of the source. Cut-off read from the data, not from the text of the source: active = GI50 up to about 1.1 µM and inactive = higher.

How the values were obtained:
Test in all cases: growth of human tumour cells (NCI), 48 h
SK-MEL-28 = system: SK-MEL-28
SF-295 = system: SF-295
NCI-H460 = system: NCI-H460
A498 = system: A498
U-251 = system: U-251
SF-268 = system: SF-268
SNB-19 = system: SNB-19
RPMI-8226 = system: RPMI-8226
A549 = system: A549
SR = system: SR
CCRF-CEM = system: CCRF-CEM
786-0 = system: 786-0
NCI-H23 = system: NCI-H23
UO-31 = system: UO-31
SK-MEL-2 = system: SK-MEL-2

Measured: GI50

N#Cc1c(-c2ccco2)cc(-c2ccccc2)nc1O
inactive: SK-MEL-28 > 100 µM | SF-295 > 100 µM | NCI-H460 > 100 µM | A498 > 100 µM | U-251 > 100 µM | SF-268 > 100 µM | SNB-19 > 100 µM | RPMI-8226 > 100 µM | A549 > 100 µM | SR > 100 µM | CCRF-CEM > 100 µM | 786-0 > 100 µM | NCI-H23 > 100 µM | UO-31 > 100 µM

CC1CCP(=O)(c2ccccc2)c2ccccc21 (stereo not given)
inactive: SK-MEL-28 > 100 µM | SF-295 > 100 µM | SK-MEL-2 > 100 µM | NCI-H460 40.8 µM | A498 > 100 µM | U-251 24.1 µM | SNB-19 > 100 µM | RPMI-8226 64.3 µM | A549 > 100 µM | SR 32.4 µM | CCRF-CEM 37.7 µM | 786-0 > 100 µM | NCI-H23 > 100 µM | UO-31 > 100 µM

COC(=O)C1=C(C(=O)OC)SC(=CC#CC=C2SC(C(=O)OC)=C(C(=O)OC)S2)S1
inactive: SK-MEL-28 18.4 µM | SF-295 2.82 µM | SK-MEL-2 12.9 µM | NCI-H460 21 µM | A498 19.4 µM | U-251 16.1 µM | SF-268 > 32.4 µM | SNB-19 6.41 µM | RPMI-8226 > 100 µM | A549 25.5 µM | SR > 100 µM | CCRF-CEM > 100 µM | 786-0 5.79 µM | NCI-H23 5.81 µM | UO-31 3.51 µM

CNC(=O)CN(CC(=O)NC)C(=O)NC
inactive: SK-MEL-28 > 100 µM | SF-295 > 100 µM | SK-MEL-2 > 100 µM | A498 > 100 µM | U-251 > 100 µM | SF-268 > 100 µM | SNB-19 > 100 µM | RPMI-8226 > 100 µM | A549 > 100 µM | SR > 100 µM | CCRF-CEM > 100 µM | 786-0 > 100 µM | NCI-H23 > 100 µM | UO-31 > 100 µM

Cc1cc2c(cc1Br)C1(C)CCC(C)C1(C)O2 (stereo not given)
inactive: SK-MEL-28 38.4 µM | SF-295 17.3 µM | SK-MEL-2 18.6 µM | NCI-H460 23.7 µM | A498 34.6 µM | U-251 21.8 µM | SF-268 34 µM | SNB-19 36 µM | RPMI-8226 14 µM | A549 36.5 µM | SR 13 µM | CCRF-CEM 22.1 µM | 786-0 23.1 µM | NCI-H23 25.5 µM | UO-31 32.4 µM

N/N=C1\C(=O)N(CCc2ccccc2)C(=O)C1C(=O)NCCc1ccccc1 (stereo not given)
inactive: SK-MEL-28 > 100 µM | SF-295 > 100 µM | SK-MEL-2 > 100 µM | U-251 > 100 µM | SF-268 > 100 µM | SNB-19 > 100 µM | RPMI-8226 > 100 µM | A549 > 100 µM | SR > 100 µM | CCRF-CEM > 100 µM | 786-0 > 100 µM | NCI-H23 > 100 µM | UO-31 > 100 µM

CC(C)OP(=O)(NC(=S)c1ccccc1)OC(C)C
inactive: SK-MEL-28 > 100 µM | SF-295 > 100 µM | SK-MEL-2 > 100 µM | NCI-H460 23.4 µM | A498 43 µM | U-251 > 100 µM | SF-268 > 100 µM | SNB-19 > 100 µM | A549 92 µM | CCRF-CEM 74.5 µM | 786-0 > 100 µM | NCI-H23 > 100 µM | UO-31 > 100 µM

CN1C(=O)n2c(nc3ccccc32)C(N=[N+]=[N-])(N=[N+]=[N-])C1=O (stereo not given)
inactive: SK-MEL-28 > 100 µM | SF-295 > 100 µM | SK-MEL-2 > 100 µM | NCI-H460 > 100 µM | A498 > 100 µM | U-251 > 100 µM | SF-268 > 100 µM | SNB-19 > 100 µM | RPMI-8226 > 100 µM | A549 > 100 µM | CCRF-CEM 68.9 µM | 786-0 > 100 µM | NCI-H23 > 100 µM | UO-31 > 100 µM

CC(C)C(=O)NS(=O)(=O)c1ccccc1
inactive: SK-MEL-28 > 100 µM | SF-295 > 100 µM | SK-MEL-2 > 100 µM | NCI-H460 > 100 µM | A498 > 100 µM | U-251 > 100 µM | SF-268 > 100 µM | SNB-19 > 100 µM | RPMI-8226 > 100 µM | A549 > 100 µM | SR > 100 µM | CCRF-CEM > 100 µM | 786-0 > 100 µM | NCI-H23 > 100 µM | UO-31 > 100 µM

N#C/N=C(/NCCc1c[nH]c2ccccc12)Oc1ccccc1
inactive: SK-MEL-28 > 100 µM | SF-295 45.8 µM | NCI-H460 37.1 µM | U-251 > 100 µM | SF-268 > 100 µM | SNB-19 93.5 µM | RPMI-8226 37.7 µM | A549 60.4 µM | SR 35 µM | CCRF-CEM 21.9 µM | 786-0 8.57 µM | NCI-H23 > 100 µM | UO-31 23.4 µM

COC(=O)c1cc(O)ccc1NC(=O)c1ccc(O)cc1
inactive: SK-MEL-28 > 100 µM | SF-295 > 100 µM | SK-MEL-2 > 100 µM | NCI-H460 > 100 µM | U-251 > 100 µM | SF-268 > 100 µM | SNB-19 > 100 µM | RPMI-8226 > 100 µM | A549 > 100 µM | SR > 100 µM | CCRF-CEM > 100 µM | 786-0 > 100 µM | NCI-H23 > 100 µM | UO-31 > 100 µM

CCC(=O)C1=C(OC(C)=O)C2Cc3c(n(C)c4ccccc34)C(C1)N2C (stereo not given)
inactive: SK-MEL-28 71.8 µM | SF-295 > 100 µM | SK-MEL-2 63.7 µM | NCI-H460 53 µM | A498 42.9 µM | U-251 > 100 µM | SF-268 19 µM | SNB-19 > 100 µM | A549 68.5 µM | SR 36.1 µM | CCRF-CEM 27 µM | 786-0 22.2 µM | NCI-H23 68.9 µM | UO-31 36.1 µM

COc1c2nc(CCl)[nH]c(=O)c2c(OC)c2nc(CCl)[nH]c(=O)c12
inactive: SK-MEL-28 > 100 µM | SF-295 > 100 µM | SK-MEL-2 > 100 µM | NCI-H460 > 100 µM | U-251 > 100 µM | SF-268 > 100 µM | SNB-19 > 100 µM | RPMI-8226 > 100 µM | A549 > 100 µM | CCRF-CEM > 100 µM | 786-0 > 100 µM | NCI-H23 > 100 µM | UO-31 > 100 µM

CCOC1c2nc3ccccc3nc2-c2ccccc2N1C(C)=O (stereo not given)
inactive: SK-MEL-28 > 100 µM | SF-295 69.3 µM | SK-MEL-2 81.7 µM | NCI-H460 > 100 µM | A498 > 100 µM | U-251 > 100 µM | SNB-19 > 100 µM | RPMI-8226 > 100 µM | A549 > 100 µM | SR > 100 µM | CCRF-CEM > 100 µM | 786-0 56.8 µM | NCI-H23 > 100 µM | UO-31 > 100 µM
